Experimental data as given in patent publication US20250025473A1 (priority 2021, published 2025).
pIC50: −log10 of the molar value. Structures can show the parent of a compound that is named as a salt.

Experiments:
panel of 393 kinases [1] = molecular target: T1, panel of 393 kinases (Homo sapiens, UniProt Q9BQI3); assay: biochemical
T1 construct: purchased Reaction Biology Corporation

HSV-1 K26GFP = assay: HSV capsid entry, GFP+ cells by confocal imaging; conditions: HaCat, 4 h post-temperature shift; CIMSS 10 μM, anti-Akt 2 μg/ml, cycloheximide 10 μg/ml
MDCK-MDR1 cells = conditions: 5 μM
[2] = Parallel artificial membrane permeability assay (PAMPA); type: in vitro ADME
PLSCR1 [3] = type: cell-based, monkey; conditions: Vero, 30 minutes; drugs 10 μM each
[4] = tested on: phosphatidylserine (PtdS) and Akt; assay: Translocation of PtdS and Akt to the outer leaflet after HSV-2 (confocal, non-permeabilized); type: cell-based, human; conditions: HaCat, HSV-2(G)
PLSCR1 [5] = assay: PLSCR1 phosphorylation after HSV-2 (immunoprecipitation/Western); type: cell-based, human; conditions: 10 μM, HaCat, 30 minutes
HaCat cells = assay: Cytotoxicity/viability, confluent HaCat cells; type: cell-based, human; conditions: 10 μM
Experimental: Results are presented as mean±SEM odu as a percentage of the DMSO control (n=2 independent experiments each conducted in duplicate for C and 1 experiment conducted in duplicate for D). Results in B-D were compared by ANOVA, *p<0.05, **p<0.01, ***p<0.001, ****p<0.0001).
Cell proliferation and viability were determined using the Cell Titer 96® Aqueous One Solution and optical density was determined using a SpectraMax® M5e Molecular Devices multidetection microplate reader. […] The cells were then fixed and stained for activated caspases (red) and SYTOX Green (for integrity of plasma membrane) by Image-iT™ LIVE red Poly Caspase Detection kit. Nuclei were stained with Hoechst. Images were acquired by laser confocal microscope ZeissLive/DuoScan equipped with oil immersion objectives 63×1.1 and captured in an optical slice of 0.37 μm with appropriate filters. Alternatively, immunoblots were prepared and probed with antibodies to cleaved PARP-1 or cleaved caspase 8.

panel of 393 kinases [6] = molecular target: T2, panel of 393 kinases (Homo sapiens, UniProt Q13131); assay: biochemical; conditions: control compound
T2 construct: purchased Reaction Biology Corporation
T2 sequence (Q13131 whole entry): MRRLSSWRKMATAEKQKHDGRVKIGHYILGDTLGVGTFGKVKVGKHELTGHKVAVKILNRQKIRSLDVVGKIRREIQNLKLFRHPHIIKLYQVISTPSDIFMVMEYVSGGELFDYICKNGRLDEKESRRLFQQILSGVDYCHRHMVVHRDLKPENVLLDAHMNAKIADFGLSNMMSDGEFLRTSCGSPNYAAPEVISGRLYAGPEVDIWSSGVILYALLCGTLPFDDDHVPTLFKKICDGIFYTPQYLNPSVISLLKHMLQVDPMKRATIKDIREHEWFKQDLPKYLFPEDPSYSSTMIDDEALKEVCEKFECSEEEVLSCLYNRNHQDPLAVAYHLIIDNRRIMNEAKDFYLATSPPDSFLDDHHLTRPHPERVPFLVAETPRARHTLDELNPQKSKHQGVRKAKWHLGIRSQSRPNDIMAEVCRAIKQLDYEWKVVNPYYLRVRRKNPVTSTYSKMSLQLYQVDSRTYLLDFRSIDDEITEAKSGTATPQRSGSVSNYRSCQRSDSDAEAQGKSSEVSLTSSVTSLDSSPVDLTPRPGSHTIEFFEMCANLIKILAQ

panel of 393 kinases [7] = molecular target: T3, panel of 393 kinases (Homo sapiens, UniProt P54646); assay: biochemical; conditions: control compound
T3 construct: purchased Reaction Biology Corporation
T3 sequence (P54646 whole entry): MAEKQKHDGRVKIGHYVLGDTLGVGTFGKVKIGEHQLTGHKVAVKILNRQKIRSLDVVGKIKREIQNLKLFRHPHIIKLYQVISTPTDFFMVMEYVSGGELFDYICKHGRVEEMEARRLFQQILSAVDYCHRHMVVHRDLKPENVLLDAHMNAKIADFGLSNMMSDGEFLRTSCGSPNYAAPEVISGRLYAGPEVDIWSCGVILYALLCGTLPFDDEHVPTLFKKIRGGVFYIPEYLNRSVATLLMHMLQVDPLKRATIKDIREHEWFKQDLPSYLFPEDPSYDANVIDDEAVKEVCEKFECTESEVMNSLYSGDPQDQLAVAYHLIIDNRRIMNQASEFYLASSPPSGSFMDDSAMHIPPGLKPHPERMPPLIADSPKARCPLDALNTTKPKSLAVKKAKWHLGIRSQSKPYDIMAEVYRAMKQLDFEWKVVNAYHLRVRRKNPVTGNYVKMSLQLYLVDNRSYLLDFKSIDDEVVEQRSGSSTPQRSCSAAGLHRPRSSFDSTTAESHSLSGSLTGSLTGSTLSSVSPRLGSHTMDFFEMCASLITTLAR

panel of 393 kinases [8] = molecular target: T4, panel of 393 kinases (Homo sapiens, UniProt Q96QT4); assay: biochemical; conditions: kinase TRPM7/CHAK1; control compound
T4 construct: purchased Reaction Biology Corporation
T4 sequence (Q96QT4 whole entry): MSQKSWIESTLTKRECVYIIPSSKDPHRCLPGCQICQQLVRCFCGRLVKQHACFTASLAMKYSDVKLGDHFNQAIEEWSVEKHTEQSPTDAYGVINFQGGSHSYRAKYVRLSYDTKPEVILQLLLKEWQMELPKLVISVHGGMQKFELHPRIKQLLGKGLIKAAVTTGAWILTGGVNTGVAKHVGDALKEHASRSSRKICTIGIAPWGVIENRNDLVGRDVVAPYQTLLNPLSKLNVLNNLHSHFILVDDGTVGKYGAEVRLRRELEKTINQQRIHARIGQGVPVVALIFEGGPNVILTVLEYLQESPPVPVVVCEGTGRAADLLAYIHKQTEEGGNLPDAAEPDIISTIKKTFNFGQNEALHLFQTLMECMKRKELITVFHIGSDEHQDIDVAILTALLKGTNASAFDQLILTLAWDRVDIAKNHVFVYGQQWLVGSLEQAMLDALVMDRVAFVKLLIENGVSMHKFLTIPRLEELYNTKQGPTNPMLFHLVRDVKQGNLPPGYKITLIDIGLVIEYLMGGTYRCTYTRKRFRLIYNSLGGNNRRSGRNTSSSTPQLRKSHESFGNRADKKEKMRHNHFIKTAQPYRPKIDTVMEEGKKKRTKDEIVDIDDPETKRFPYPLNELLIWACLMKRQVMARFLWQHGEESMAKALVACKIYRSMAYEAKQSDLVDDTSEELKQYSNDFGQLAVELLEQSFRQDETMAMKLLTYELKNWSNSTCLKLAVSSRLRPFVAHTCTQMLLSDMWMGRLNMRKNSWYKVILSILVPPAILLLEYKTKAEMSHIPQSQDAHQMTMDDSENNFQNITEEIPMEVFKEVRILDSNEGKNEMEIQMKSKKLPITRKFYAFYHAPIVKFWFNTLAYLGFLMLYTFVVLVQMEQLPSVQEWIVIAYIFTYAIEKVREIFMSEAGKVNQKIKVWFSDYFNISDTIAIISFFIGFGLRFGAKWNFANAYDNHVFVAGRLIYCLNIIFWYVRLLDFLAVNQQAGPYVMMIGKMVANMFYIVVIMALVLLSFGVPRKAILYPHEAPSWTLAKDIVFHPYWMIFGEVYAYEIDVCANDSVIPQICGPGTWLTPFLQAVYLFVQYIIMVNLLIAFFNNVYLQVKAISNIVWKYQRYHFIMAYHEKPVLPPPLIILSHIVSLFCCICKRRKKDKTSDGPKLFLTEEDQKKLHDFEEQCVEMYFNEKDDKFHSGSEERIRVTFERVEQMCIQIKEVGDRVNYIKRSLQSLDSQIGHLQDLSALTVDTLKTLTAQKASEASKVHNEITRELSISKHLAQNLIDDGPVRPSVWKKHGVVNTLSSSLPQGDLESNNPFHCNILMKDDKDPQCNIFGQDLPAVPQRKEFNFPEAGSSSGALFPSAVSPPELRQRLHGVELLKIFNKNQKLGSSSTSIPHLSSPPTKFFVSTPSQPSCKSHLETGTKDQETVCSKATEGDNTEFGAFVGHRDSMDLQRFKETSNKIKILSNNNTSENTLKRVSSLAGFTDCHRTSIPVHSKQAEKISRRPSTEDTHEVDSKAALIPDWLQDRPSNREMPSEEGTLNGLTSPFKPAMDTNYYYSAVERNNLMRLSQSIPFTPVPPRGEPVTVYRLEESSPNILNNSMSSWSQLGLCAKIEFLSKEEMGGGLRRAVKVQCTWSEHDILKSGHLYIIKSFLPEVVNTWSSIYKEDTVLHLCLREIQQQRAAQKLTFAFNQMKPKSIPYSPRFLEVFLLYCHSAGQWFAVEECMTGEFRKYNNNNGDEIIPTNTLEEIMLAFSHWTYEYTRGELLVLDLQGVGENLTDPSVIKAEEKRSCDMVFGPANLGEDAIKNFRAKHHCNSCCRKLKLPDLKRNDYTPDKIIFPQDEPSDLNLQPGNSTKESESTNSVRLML

[9] = tested on: VSV-S (VSV pseudotyped with SARS-CoV-2 spike protein); type: cell-based
panel of 393 kinases [10] = molecular target: T5, panel of 393 kinases (Homo sapiens, UniProt Q15119); assay: biochemical; conditions: kinase PDK2/PDHK2; control compound
T5 construct: purchased Reaction Biology Corporation

panel of 393 kinases [11] = molecular target: T6, panel of 393 kinases (Homo sapiens, UniProt Q15118); assay: biochemical; conditions: kinase PDK1/PDHK1; control compound
T6 construct: purchased Reaction Biology Corporation
T6 sequence (Q15118 29-436): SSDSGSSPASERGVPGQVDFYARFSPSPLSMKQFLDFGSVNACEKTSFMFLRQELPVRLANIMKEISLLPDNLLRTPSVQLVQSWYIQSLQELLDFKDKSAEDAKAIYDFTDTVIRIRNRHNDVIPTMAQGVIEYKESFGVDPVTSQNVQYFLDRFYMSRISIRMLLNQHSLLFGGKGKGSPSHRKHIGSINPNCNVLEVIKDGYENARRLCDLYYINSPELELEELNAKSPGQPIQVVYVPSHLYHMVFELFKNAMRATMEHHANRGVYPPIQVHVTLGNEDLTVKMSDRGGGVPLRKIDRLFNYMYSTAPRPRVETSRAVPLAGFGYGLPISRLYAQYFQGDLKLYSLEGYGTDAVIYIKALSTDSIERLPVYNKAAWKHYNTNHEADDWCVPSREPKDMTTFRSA

panel of 393 kinases [12] = molecular target: T7, panel of 393 kinases (Homo sapiens, UniProt Q15120); assay: biochemical; conditions: kinase PDK3/PDHK3; control compound
T7 construct: purchased Reaction Biology Corporation
T7 sequence (Q15120 whole entry): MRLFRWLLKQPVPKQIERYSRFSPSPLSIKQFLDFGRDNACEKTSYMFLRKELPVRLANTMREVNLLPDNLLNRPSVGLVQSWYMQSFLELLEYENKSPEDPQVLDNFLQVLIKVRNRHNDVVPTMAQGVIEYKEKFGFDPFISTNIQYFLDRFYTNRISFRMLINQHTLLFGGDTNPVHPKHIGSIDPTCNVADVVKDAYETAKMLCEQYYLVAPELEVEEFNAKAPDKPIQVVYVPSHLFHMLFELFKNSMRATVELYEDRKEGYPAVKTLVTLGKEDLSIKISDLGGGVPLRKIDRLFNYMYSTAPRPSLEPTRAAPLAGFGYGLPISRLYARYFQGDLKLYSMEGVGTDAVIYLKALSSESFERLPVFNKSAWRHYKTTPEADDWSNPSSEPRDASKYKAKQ

panel of 393 kinases [13] = molecular target: T8, panel of 393 kinases (Homo sapiens, UniProt Q16654); assay: biochemical; conditions: kinase PDK4/PDHK4; control compound
T8 construct: purchased Reaction Biology Corporation
T8 sequence (Q16654 whole entry): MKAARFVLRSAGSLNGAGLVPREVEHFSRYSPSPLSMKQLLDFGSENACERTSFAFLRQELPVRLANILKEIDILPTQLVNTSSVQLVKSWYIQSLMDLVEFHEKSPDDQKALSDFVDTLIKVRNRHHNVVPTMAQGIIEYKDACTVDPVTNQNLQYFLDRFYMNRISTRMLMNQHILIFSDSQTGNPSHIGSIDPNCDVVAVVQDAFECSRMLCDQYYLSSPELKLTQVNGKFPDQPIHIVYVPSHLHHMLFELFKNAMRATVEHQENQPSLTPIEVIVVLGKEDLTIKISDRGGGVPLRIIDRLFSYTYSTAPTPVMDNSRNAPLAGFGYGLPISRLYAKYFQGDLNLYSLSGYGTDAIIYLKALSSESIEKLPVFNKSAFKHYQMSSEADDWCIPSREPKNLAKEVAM

T1 sequence (Q9BQI3 whole entry): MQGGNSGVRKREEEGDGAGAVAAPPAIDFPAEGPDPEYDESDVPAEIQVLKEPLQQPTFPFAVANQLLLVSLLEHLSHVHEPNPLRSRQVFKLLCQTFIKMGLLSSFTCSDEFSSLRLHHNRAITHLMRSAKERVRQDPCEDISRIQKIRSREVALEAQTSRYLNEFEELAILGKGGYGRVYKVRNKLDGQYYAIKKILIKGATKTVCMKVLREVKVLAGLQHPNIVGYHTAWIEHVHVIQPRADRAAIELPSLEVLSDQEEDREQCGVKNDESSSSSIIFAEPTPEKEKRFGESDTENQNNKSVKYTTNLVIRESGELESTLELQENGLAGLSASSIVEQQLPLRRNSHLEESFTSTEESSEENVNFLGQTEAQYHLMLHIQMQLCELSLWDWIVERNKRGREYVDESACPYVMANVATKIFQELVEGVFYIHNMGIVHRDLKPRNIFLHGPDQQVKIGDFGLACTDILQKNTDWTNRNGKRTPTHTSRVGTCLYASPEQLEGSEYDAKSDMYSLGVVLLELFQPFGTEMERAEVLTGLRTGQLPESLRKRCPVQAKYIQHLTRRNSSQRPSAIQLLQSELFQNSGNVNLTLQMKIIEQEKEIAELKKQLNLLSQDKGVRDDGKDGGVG

`Cn1cc(-c2ccc3c(c2)CCN3C(=O)Cc2cccc(C(F)(F)F)c2)c2c(N)ncnc21` [GSK-2606414] gave a pIC50 (panel of 393 kinases [1]) of 7.02.

In the case of `C[C@@H]1C[C@@H]([C@H](O)CC2CC(=O)NC(=O)C2)C(=O)[C@@H](C)C1` [cycloheximide, reference compound], the “percentage of GFP+ cells” value (HSV-1 K26GFP) was “significantly reduced”.

For `CC(C)NCC(O)COc1cccc2ccccc12` (stereo not drawn) [Propranolol], the “Recover %, MDCK Transport” value (MDCK-MDR1 cells) was 93%, the “Recover %, PAMPA” value ([2]; 100 μM) was 85% and the “Papp, PAMPA” value ([2]; 100 μM in PBS pH 7.4, 5 hours, room temperature) was 8.991 ×10⁻⁶ cm/s.

For `CN[C@@H]1C[C@H]2O[C@@](C)([C@@H]1OC)n1c3ccccc3c3c4c(c5c6ccccc6n2c5c31)C(=O)NC4` [Staurosporine, (9S,10R,11R,13R)-2,3,10,11,12,13-hexahydro-10-methoxy-9-methyl-11-(methylamino)-9,13-epoxy-1H,9H-diindolo[1,2,3-gh:3′,2′,1′-lm]pyrrolo[3,4-j][1,7]benzodiazonin-1-one, reference compound], the “phosphorylation of PLSCR1 after VSV-S” value (PLSCR1 [3]) was “inhibited”, the “translocation of PtdS and Akt to the outer leaflet of the plasma membrane” value ([4]; 10 μM) was “inhibited” and the “phosphorylation of PLSCR1 after HSV-2” value (PLSCR1 [5]) was “inhibited”. The cytotoxicity (HaCat cells; confluent HaCat, 72 and 120 hours of exposure) was “completely cytotoxic” and the cytotoxicity (HaCat cells; fully confluent HaCat cells, up to 120 h) was “cytotoxic within 24 h”.

Work on Ro-31-8220 yielded an IC50 (panel of 393 kinases [6]; kinase AMPK(A1/B1/G1)) of 66.8 nM, an IC50 (panel of 393 kinases [6]; kinase AMPK(A1/B1/G2)) of 76.8 nM and an IC50 (panel of 393 kinases [6]; kinase AMPK(A1/B1/G3)) of 179 nM. The IC50 (panel of 393 kinases [6]; kinase AMPK(A1/B2/G1)) was 116 nM, the IC50 (panel of 393 kinases [7]; kinase AMPK (A2/B1/G3)) was 296 nM and the IC50 (panel of 393 kinases [7]; kinase AMPK(A2/B1/G1)) was 212 nM. It also gave an IC50 (panel of 393 kinases [7]; kinase AMPK(A2/B2/G1)) of 97.8 nM, an IC50 (panel of 393 kinases [7]; kinase AMPK(A2/B2/G2)) of 100 nM and an IC50 (panel of 393 kinases [7]; kinase AMPK(A2/B2/G3)) of 186 nM.

In the case of Apyrase, the “detection of PtdS or PLSCR1 at the outer leaflet” value ([4]; 10 U/ml) was “no discernible effect”.

Compound `CCCCCCCCCCCCCCCCn1cc[n+](Cc2ccccc2)c1C` [NH125] has an IC50 (panel of 393 kinases [8]) of 23400 nM.

In the case of `CN(C)C(=O)COC(=O)Cc1ccc(OC(=O)c2ccc(NC(=N)N)cc2)cc1` [camostat mesylate, reference compound], the “VSV-S infection (plaques or viral yields)” value [9] was “inhibited”.

With `C[C@H]1O[C@@H](O[C@H]2[C@@H](O)C[C@H](O[C@H]3[C@@H](O)C[C@H](O[C@H]4CC[C@@]5(C)[C@H](CC[C@@H]6[C@@H]5C[C@@H](O)[C@]5(C)[C@@H](C7=CC(=O)OC7)CC[C@]65O)C4)O[C@@H]3C)O[C@@H]2C)C[C@H](O)[C@@H]1O` [Digoxin] the “Recover %, MDCK Transport” value (MDCK-MDR1 cells) was 96%.

`O=C1Nc2ccc(I)cc2/C1=C/c1cc(Br)c(O)c(Br)c1` [GW5074] showed an IC50 (panel of 393 kinases [10]) of 5050 nM, an IC50 (panel of 393 kinases [11]) of 8630 nM and an IC50 (panel of 393 kinases [12]) of 2570 nM. It also gave an IC50 (panel of 393 kinases [13]) of 1890 nM.
